Assay results: PubChem BioAssay (NCI)
Values joined by “and” are separate entries in the source; they are usually repeats but may differ in a detail not shown here. Identical values can stand only once.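 Results reflect a 48-hour exposure of cells in 96-well plates to compound at five concentrations. GI50 is the concentration that inhibits growth by half. TGI denotes the concentration required for complete inhibition of growth.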

Key:
Assay in all cases: NCI-60 cell line screen, 48 h
786-0 renal = system: 786-0 renal
A498 renal = system: A498 renal
A549 NSCLC = system: A549 NSCLC
ACHN renal = system: ACHN renal
BT-549 breast = system: BT-549 breast
CAKI-1 renal = system: CAKI-1 renal
CCRF-CEM leukemia = system: CCRF-CEM leukemia
COLO 205 colon = system: COLO 205 colon
DU-145 prostate = system: DU-145 prostate
EKVX NSCLC = system: EKVX NSCLC
HCC-2998 colon = system: HCC-2998 colon
HCT-116 colon = system: HCT-116 colon
HCT-15 colon = system: HCT-15 colon
HL-60(TB) leukemia = system: HL-60(TB) leukemia
HOP-62 NSCLC = system: HOP-62 NSCLC
HOP-92 NSCLC = system: HOP-92 NSCLC
HS 578T breast = system: HS 578T breast
HT29 colon = system: HT29 colon
IGROV1 ovarian = system: IGROV1 ovarian
K-562 leukemia = system: K-562 leukemia
KM12 colon = system: KM12 colon
LOX IMVI melanoma = system: LOX IMVI melanoma
M14 melanoma = system: M14 melanoma
MALME-3M melanoma = system: MALME-3M melanoma
MCF7 breast = system: MCF7 breast
MDA-MB-231 breast = system: MDA-MB-231 breast
MDA-MB-435 = system: MDA-MB-435
MOLT-4 leukemia = system: MOLT-4 leukemia
NCI-H226 lung = system: NCI-H226 lung
NCI-H23 lung = system: NCI-H23 lung
NCI-H460 lung = system: NCI-H460 lung
NCI-H522 lung = system: NCI-H522 lung
NCI/ADR-RES ovarian = system: NCI/ADR-RES ovarian
OVCAR-3 ovarian = system: OVCAR-3 ovarian
OVCAR-4 ovarian = system: OVCAR-4 ovarian
OVCAR-5 ovarian = system: OVCAR-5 ovarian
OVCAR-8 ovarian = system: OVCAR-8 ovarian
PC-3 prostate = system: PC-3 prostate
RPMI-8226 leukemia = system: RPMI-8226 leukemia
RXF 393 renal = system: RXF 393 renal
SF-268 CNS = system: SF-268 CNS
SF-295 CNS = system: SF-295 CNS
SF-539 CNS = system: SF-539 CNS
SK-MEL-2 melanoma = system: SK-MEL-2 melanoma
SK-MEL-28 melanoma = system: SK-MEL-28 melanoma
SK-MEL-5 melanoma = system: SK-MEL-5 melanoma
SK-OV-3 ovarian = system: SK-OV-3 ovarian
SN12C renal = system: SN12C renal
SNB-19 CNS = system: SNB-19 CNS
SNB-75 CNS = system: SNB-75 CNS
SR leukemia = system: SR leukemia
SW-620 colon = system: SW-620 colon
T-47D breast = system: T-47D breast
TK-10 renal = system: TK-10 renal
U251 CNS = system: U251 CNS
UACC-257 melanoma = system: UACC-257 melanoma
UACC-62 melanoma = system: UACC-62 melanoma
UO-31 renal = system: UO-31 renal

Cn1ncc(Cl)c1-c1cc(C(=O)N[C@H](CN)Cc2ccc(F)c(F)c2)oc1Cl was tested, and the GI50 (786-0 renal) was 37.1 nM and 29.5 nM, the TGI (786-0 renal) was 3790 nM and 2100 nM and the GI50 (A498 renal) was 30.3 nM and 40.4 nM. For the same compound, the TGI (A498 renal) was 300 nM and 472 nM, the GI50 (A549 NSCLC) was 1570 nM and 1200 nM and the TGI (A549 NSCLC) was 15000 nM and > 10000 nM. For the same compound, the GI50 (ACHN renal) was 2230 nM and 1860 nM, the TGI (ACHN renal) was 14200 nM and > 10000 nM and the GI50 (BT-549 breast) was 511 nM and 412 nM. For the same compound, the TGI (BT-549 breast) was 3710 nM and 3020 nM, the GI50 (CAKI-1 renal) was 1900 nM and 870 nM and the TGI (CAKI-1 renal) was 14200 nM and > 5200 nM. The GI50 (CCRF-CEM leukemia) was 197 nM and 196 nM, the TGI (CCRF-CEM leukemia) was 11800 nM and > 10000 nM and the GI50 (COLO 205 colon) was 593 nM and 575 nM. The TGI (COLO 205 colon) was 5840 nM and 3220 nM, the GI50 (DU-145 prostate) was 4250 nM and 2480 nM and the TGI (DU-145 prostate) was 17800 nM and > 10000 nM. For the same compound, the GI50 (EKVX NSCLC) was 2770 nM, the TGI (EKVX NSCLC) was > 10000 nM and the TGI (HCC-2998 colon) was 6230 nM and 2080 nM. The GI50 (HCT-116 colon) was 1670 nM and 1760 nM, the TGI (HCT-116 colon) was 8090 nM and > 6830 nM and the GI50 (HCT-15 colon) was 1160 nM and 662 nM. For the same compound, the TGI (HCT-15 colon) was 13800 nM and > 10000 nM, the GI50 (HL-60(TB) leukemia) was 2900 nM and 2050 nM and the TGI (HL-60(TB) leukemia) was 9620 nM and 6760 nM. For the same compound, the GI50 (HOP-62 NSCLC) was 2140 nM and 2700 nM, the TGI (HOP-62 NSCLC) was 14000 nM and > 10000 nM and the GI50 (HOP-92 NSCLC) was 139 nM and 191 nM. The TGI (HOP-92 NSCLC) was 2420 nM and 1420 nM, the GI50 (HS 578T breast) was 90.5 nM and 126 nM and the TGI (HS 578T breast) was 2080 nM and 2860 nM. For the same compound, the GI50 (HT29 colon) was 1150 nM and 346 nM, the TGI (HT29 colon) was 15000 nM and > 10000 nM and the GI50 (IGROV1 ovarian) was 26.8 nM and 20.1 nM. For the same compound, the TGI (IGROV1 ovarian) was 3620 nM and 1430 nM, the GI50 (K-562 leukemia) was 2340 nM and 3010 nM and the TGI (K-562 leukemia) was 7350 nM and > 8680 nM. The GI50 (KM12 colon) was 590 nM and 255 nM, the TGI (KM12 colon) was 6730 nM and 4430 nM and the GI50 (LOX IMVI melanoma) was 2650 nM and 1440 nM. The TGI (LOX IMVI melanoma) was 19900 nM and 4190 nM, the GI50 (M14 melanoma) was 1590 nM and 1490 nM and the TGI (M14 melanoma) was 5700 nM and 3710 nM. The GI50 (MALME-3M melanoma) was 360 nM and 687 nM, the TGI (MALME-3M melanoma) was 1610 nM and 2590 nM and the GI50 (MCF7 breast) was 257 nM and 139 nM. The TGI (MCF7 breast) was 9660 nM and 2890 nM, the GI50 (MDA-MB-231 breast) was 2590 nM and 1720 nM and the TGI (MDA-MB-231 breast) was 9870 nM and 5760 nM. For the same compound, the GI50 (MDA-MB-435) was 1230 nM and 889 nM, the TGI (MDA-MB-435) was 10400 nM and > 6540 nM and the GI50 (MOLT-4 leukemia) was 93.1 nM and 100 nM. The TGI (MOLT-4 leukemia) was 2250 nM and > 6730 nM, the GI50 (NCI-H226 lung) was 5910 nM and 2290 nM and the TGI (NCI-H226 lung) was 24700 nM and > 10000 nM. The GI50 (NCI-H23 lung) was 5170 nM and 2440 nM, the TGI (NCI-H23 lung) was 19700 nM and > 10000 nM and the GI50 (NCI-H460 lung) was 152 nM and 163 nM. The TGI (NCI-H460 lung) was 13000 nM and > 10000 nM, the GI50 (NCI-H522 lung) was 4820 nM and 2040 nM and the TGI (NCI-H522 lung) was 16000 nM and > 8820 nM. The GI50 (NCI/ADR-RES ovarian) was 10200 nM and 2940 nM, the TGI (NCI/ADR-RES ovarian) was 24500 nM and > 10000 nM and the GI50 (OVCAR-3 ovarian) was 1970 nM and 1600 nM. The TGI (OVCAR-3 ovarian) was 15000 nM and > 10000 nM, the GI50 (OVCAR-4 ovarian) was 4060 nM and 5400 nM and the TGI (OVCAR-4 ovarian) was 17200 nM and > 10000 nM. For the same compound, the GI50 (OVCAR-5 ovarian) was 426 nM and 2450 nM, the TGI (OVCAR-5 ovarian) was 9120 nM and > 10000 nM and the GI50 (OVCAR-8 ovarian) was 9130 nM and 4990 nM. The TGI (OVCAR-8 ovarian) was 23700 nM and > 10000 nM, the GI50 (PC-3 prostate) was 263 nM and 133 nM and the TGI (PC-3 prostate) was 9070 nM and > 6730 nM. For the same compound, the GI50 (RPMI-8226 leukemia) was 2050 nM and 2620 nM, the TGI (RPMI-8226 leukemia) was 7960 nM and > 7980 nM and the GI50 (RXF 393 renal) was 36.1 nM and 33.8 nM. The TGI (RXF 393 renal) was 534 nM and 705 nM, the GI50 (SF-268 CNS) was 3360 nM and 2080 nM and the TGI (SF-268 CNS) was 17100 nM and > 10000 nM. The GI50 (SF-295 CNS) was 145 nM and 111 nM, the TGI (SF-295 CNS) was 5040 nM and 3270 nM and the GI50 (SF-539 CNS) was 161 nM and 121 nM. The TGI (SF-539 CNS) was 3220 nM and 2140 nM, the GI50 (SK-MEL-2 melanoma) was 2440 nM and 1770 nM and the TGI (SK-MEL-2 melanoma) was 6820 nM and 4720 nM. The GI50 (SK-MEL-28 melanoma) was 1020 nM and 935 nM, the TGI (SK-MEL-28 melanoma) was 4780 nM and 3200 nM and the GI50 (SK-MEL-5 melanoma) was 2150 nM and 1480 nM. For the same compound, the TGI (SK-MEL-5 melanoma) was 5800 nM and 2870 nM, the GI50 (SK-OV-3 ovarian) was 232 nM and 259 nM and the TGI (SK-OV-3 ovarian) was 3750 nM and 5040 nM. For the same compound, the GI50 (SN12C renal) was 3480 nM and 1690 nM, the TGI (SN12C renal) was 17400 nM and > 10000 nM and the GI50 (SNB-19 CNS) was 486 nM and 252 nM. The TGI (SNB-19 CNS) was 12900 nM and > 10000 nM, the GI50 (SNB-75 CNS) was 50.8 nM and 27 nM and the TGI (SNB-75 CNS) was 1400 nM and 846 nM. For the same compound, the TGI (SR leukemia) was 2740 nM and 4360 nM, the GI50 (SW-620 colon) was 7820 nM and 4100 nM and the TGI (SW-620 colon) was 21800 nM and > 10000 nM. The GI50 (T-47D breast) was 19.3 nM and 24.5 nM, the GI50 (TK-10 renal) was 961 nM and 203 nM and the TGI (TK-10 renal) was 8740 nM and 3920 nM. The GI50 (U251 CNS) was 289 nM and 171 nM, the TGI (U251 CNS) was 13500 nM and > 9510 nM and the GI50 (UACC-257 melanoma) was 1640 nM and 1210 nM. The TGI (UACC-257 melanoma) was 7210 nM and 3160 nM, the GI50 (UACC-62 melanoma) was 625 nM and 494 nM and the TGI (UACC-62 melanoma) was 3040 nM and 2650 nM. The GI50 (UO-31 renal) was 970 nM and 360 nM and the TGI (UO-31 renal) was 11700 nM and > 7680 nM.
